From patent US10780074B2, “Compounds and uses thereof” (Sunovion Pharmaceuticals Inc., priority 2017, dated 2020)
Counter-ions that a name gives are not always drawn.

Tested on: behaviors of compound-treated mice
Assay: Neuropharmacological Assay (SmartCube)
Type: in vivo
Conditions: for minimal effective dose: Mus musculus, ip, 0.25 h, dose having 50% or more total activity in SmartCube, i.p., read-out: MED (minimal effective dose); for AD: ADHD (probability that activity matches class) / AG: analgesic (probability that activity matches class) / AX: anxiolytic (probability that activity matches class) / CE: cognitive enhancer (probability that activity matches class) / DP: anti-depressant (probability that activity matches class) / MS: mood stabilizer (probability that activity matches class) / PS: anti-psychotic (probability that activity matches class) / SD: sedative hypnotic (probability that activity matches class) / UN: uncharacterized CNS activity (probability that activity matches class): i.p. 15 min before behavioral test, most efficacious dose(s) of 3 doses
Description: Neuropharmacological Assay (SmartCube™)
Neurosci. 2011 Sep. 9; 5:103 (doi: 10.3389/fnins.2011.00103) (“Roberds”). As reported in Roberds, because psychiatric diseases generally result from disorders of cell-cell communication or circuitry, intact systems are useful in detecting improvement in disease-relevant endpoints. These endpoints are typically behavioral in nature, often requiring human observation and interpretation. To facilitate testing of multiple compounds for behavioral effects relevant to psychiatric disease, PsychoGenics, Inc. (Tarrytown, N.Y., “PGI”) developed SmartCube™, an automated system in which behaviors of compound-treated mice are captured by digital video and analyzed with computer algorithms. (D. Brunner et al., Drug Discov. Today 2002, 7:S107-S112). PGI Analytical Systems uses data from SmartCube™ to compare the behavioral signature of a test compound to a database of behavioral signatures obtained using a large set of diverse reference compounds. (The composition of the database as well as validation of the method is further described in Roberds). In this way, the neuropharmacological effects of a test compound can be predicted by similarity to major classes of compounds, such as antipsychotics, anxiolytics and antidepressants.
The SmartCube™ system produces an activity signature indicating the probability that the activity of the test compound at the administered dose matches a given class of neuropharmacological agents. (See, e.g., Roberds, FIGS. 2 and 3). The test compound is simultaneously compared against multiple classes of agents; thus, a separate probability is generated for each behavioral effect measured (e.g., anxiolytic activity, analgesic activity, etc.). In the table below, these probabilities are reported for each behavioral effect measured as follows:
Provided compounds were dissolved in a mixture of Pharmasolve™ (N-methyl-2-pyrrolidone), polyethylene glycol and propylene glycol, and were injected i.p. 15 min. before the behavioral test. For each compound, injections were administered at 3 different doses. For each behavioral effect measured, results for the most efficacious dose(s) are presented. In the table below, DP: anti-depressant; AX: anxiolytic; SD: sedative hypnotic; PS: anti-psychotic; MS: mood stabilizer; AD: ADHD; CE: cognitive enhancer; AG: analgesic; UN: uncharacterized CNS activity.
The potency of many of the compounds in the table was also determined in the SmartCube™ system. Test compounds were routinely examined at dose levels of 0.3, 1, 3 10 and 30 mg per kg (mpk), although the dose range was increased or decreased if necessary to obtain a full dose response curve. A compound's minimal effective dose (MED) is a measure of the compounds potency. The MED was defined as the dose (in mpk) having 50% or more total activity in SmartCube.

CNC[C@@H]1OCCc2c(-c3ncc[nH]3)cccc21 [Compound 110, (R)-1-(5-(1H-Imidazol-2-yl)isochroman-1-yl)-N-methylmethanamine hydrochloride salt]
minimal effective dose: 10 to 30 mg/kg | AD: ADHD (probability that activity matches class): + (LOQ ≤ + <5%) | AG: analgesic (probability that activity matches class): + (LOQ ≤ + <5%) | AX: anxiolytic (probability that activity matches class): ++ (5% ≤ ++ <25%) | CE: cognitive enhancer (probability that activity matches class): + (LOQ ≤ + <5%) | DP: anti-depressant (probability that activity matches class): + (LOQ ≤ + <5%) | MS: mood stabilizer (probability that activity matches class): + (LOQ ≤ + <5%) | PS: anti-psychotic (probability that activity matches class): + (LOQ ≤ + <5%) | SD: sedative hypnotic (probability that activity matches class): + (LOQ ≤ + <5%) | UN: uncharacterized CNS activity (probability that activity matches class): + (LOQ ≤ + <5%)

CNC[C@@H]1OCCc2c(-c3c[nH]cn3)cccc21 (single isomer, unassigned) [Compound 114, hydrochloride salt]
minimal effective dose: 10 to 30 mg/kg | AD: ADHD (probability that activity matches class): + (LOQ ≤ + <5%) | AG: analgesic (probability that activity matches class): + (LOQ ≤ + <5%) | AX: anxiolytic (probability that activity matches class): ++ (5% ≤ ++ <25%) | CE: cognitive enhancer (probability that activity matches class): + (LOQ ≤ + <5%) | DP: anti-depressant (probability that activity matches class): + (LOQ ≤ + <5%) | MS: mood stabilizer (probability that activity matches class): + (LOQ ≤ + <5%) | PS: anti-psychotic (probability that activity matches class): + (LOQ ≤ + <5%) | SD: sedative hypnotic (probability that activity matches class): + (LOQ ≤ + <5%) | UN: uncharacterized CNS activity (probability that activity matches class): + (LOQ ≤ + <5%)

NC[C@@H]1OCCc2c(-c3ccnnc3)cccc21 (single isomer, unassigned) [Compound 78, hydrochloride salt]
minimal effective dose: 3 to 10 mg/kg | AD: ADHD (probability that activity matches class): + (LOQ ≤ + <5%) | AG: analgesic (probability that activity matches class): + (LOQ ≤ + <5%) | AX: anxiolytic (probability that activity matches class): ++ (5% ≤ ++ <25%) | CE: cognitive enhancer (probability that activity matches class): + (LOQ ≤ + <5%) | DP: anti-depressant (probability that activity matches class): + (LOQ ≤ + <5%) | MS: mood stabilizer (probability that activity matches class): + (LOQ ≤ + <5%) | PS: anti-psychotic (probability that activity matches class): + (LOQ ≤ + <5%) | SD: sedative hypnotic (probability that activity matches class): + (LOQ ≤ + <5%) | UN: uncharacterized CNS activity (probability that activity matches class): + (LOQ ≤ + <5%)

NC[C@@H]1OCCc2c(-c3ccccc3)cccc21 (single isomer, unassigned) [Compound 130, hydrochloride salt]
minimal effective dose: 10 to 30 mg/kg | AD: ADHD (probability that activity matches class): + (LOQ ≤ + <5%) | AG: analgesic (probability that activity matches class): + (LOQ ≤ + <5%) | AX: anxiolytic (probability that activity matches class): ++ (5% ≤ ++ <25%) | CE: cognitive enhancer (probability that activity matches class): + (LOQ ≤ + <5%) | DP: anti-depressant (probability that activity matches class): ++ (5% ≤ ++ <25%) | MS: mood stabilizer (probability that activity matches class): + (LOQ ≤ + <5%) | PS: anti-psychotic (probability that activity matches class): + (LOQ ≤ + <5%) | SD: sedative hypnotic (probability that activity matches class): + (LOQ ≤ + <5%) | UN: uncharacterized CNS activity (probability that activity matches class): + (LOQ ≤ + <5%)

CNC[C@@H]1OCCCc2c(-c3ccncc3)cccc21 (single isomer, unassigned) [Compound 148]
minimal effective dose: 10 to 30 mg/kg | AD: ADHD (probability that activity matches class): + (LOQ ≤ + <5%) | AG: analgesic (probability that activity matches class): + (LOQ ≤ + <5%) | AX: anxiolytic (probability that activity matches class): ++ (5% ≤ ++ <25%) | CE: cognitive enhancer (probability that activity matches class): + (LOQ ≤ + <5%) | DP: anti-depressant (probability that activity matches class): + (LOQ ≤ + <5%) | MS: mood stabilizer (probability that activity matches class): + (LOQ ≤ + <5%) | PS: anti-psychotic (probability that activity matches class): + (LOQ ≤ + <5%) | SD: sedative hypnotic (probability that activity matches class): + (LOQ ≤ + <5%) | UN: uncharacterized CNS activity (probability that activity matches class): + (LOQ ≤ + <5%)

NC[C@H]1OCCc2c(-c3cncnc3)cccc21 (single isomer, unassigned) [Compound 28, hydrochloride salt]
minimal effective dose: 3 to 10 mg/kg | AD: ADHD (probability that activity matches class): ++ (5% ≤ ++ <25%) | AG: analgesic (probability that activity matches class): ++ (5% ≤ ++ <25%) | AX: anxiolytic (probability that activity matches class): ++ (5% ≤ ++ <25%) | CE: cognitive enhancer (probability that activity matches class): ++ (5% ≤ ++ <25%) | DP: anti-depressant (probability that activity matches class): +++ (25% ≤ +++ <50%) | MS: mood stabilizer (probability that activity matches class): + (LOQ ≤ + <5%) | PS: anti-psychotic (probability that activity matches class): ++ (5% ≤ ++ <25%) | SD: sedative hypnotic (probability that activity matches class): + (LOQ ≤ + <5%) | UN: uncharacterized CNS activity (probability that activity matches class): ++ (5% ≤ ++ <25%)

NC[C@@H]1OCCCc2c(-c3ccccn3)cccc21 [Compound 158, (R)-(6-(pyridin-2-yl)-1,3,4,5-tetrahydrobenzo[c]oxepin-1-yl)methanamine hydrochloride salt]
minimal effective dose: 10 to 30 mg/kg | AD: ADHD (probability that activity matches class): + (LOQ ≤ + <5%) | AG: analgesic (probability that activity matches class): + (LOQ ≤ + <5%) | AX: anxiolytic (probability that activity matches class): ++ (5% ≤ ++ <25%) | CE: cognitive enhancer (probability that activity matches class): + (LOQ ≤ + <5%) | DP: anti-depressant (probability that activity matches class): + (LOQ ≤ + <5%) | MS: mood stabilizer (probability that activity matches class): + (LOQ ≤ + <5%) | PS: anti-psychotic (probability that activity matches class): + (LOQ ≤ + <5%) | SD: sedative hypnotic (probability that activity matches class): + (LOQ ≤ + <5%) | UN: uncharacterized CNS activity (probability that activity matches class): + (LOQ ≤ + <5%)

NC[C@H]1OCCc2c(-c3ccccn3)cccc21 (single isomer, unassigned) [Compound 46, hydrochloride]
minimal effective dose: 10 to 30 mg/kg | AD: ADHD (probability that activity matches class): + (LOQ ≤ + <5%) | AG: analgesic (probability that activity matches class): + (LOQ ≤ + <5%) | AX: anxiolytic (probability that activity matches class): ++ (5% ≤ ++ <25%) | CE: cognitive enhancer (probability that activity matches class): + (LOQ ≤ + <5%) | DP: anti-depressant (probability that activity matches class): ++ (5% ≤ ++ <25%) | MS: mood stabilizer (probability that activity matches class): + (LOQ ≤ + <5%) | PS: anti-psychotic (probability that activity matches class): + (LOQ ≤ + <5%) | SD: sedative hypnotic (probability that activity matches class): + (LOQ ≤ + <5%) | UN: uncharacterized CNS activity (probability that activity matches class): ++++ (50% ≤ ++++)

NCC1OCCc2c(-c3ccnnc3)cccc21 (centres unmarked) [Compound 61, (5-(Pyridazin-4-yl)isochroman-1-yl)methanamine hydrochloride salt]
minimal effective dose: 10 to 30 mg/kg | AD: ADHD (probability that activity matches class): + (LOQ ≤ + <5%) | AG: analgesic (probability that activity matches class): + (LOQ ≤ + <5%) | AX: anxiolytic (probability that activity matches class): ++ (5% ≤ ++ <25%) | CE: cognitive enhancer (probability that activity matches class): + (LOQ ≤ + <5%) | DP: anti-depressant (probability that activity matches class): ++ (5% ≤ ++ <25%) | MS: mood stabilizer (probability that activity matches class): + (LOQ ≤ + <5%) | PS: anti-psychotic (probability that activity matches class): + (LOQ ≤ + <5%) | SD: sedative hypnotic (probability that activity matches class): + (LOQ ≤ + <5%) | UN: uncharacterized CNS activity (probability that activity matches class): ++++ (50% ≤ ++++)

CNC[C@H]1OCCc2cccc(-c3cccnc3)c21 [Compound 2, (S)-N-Methyl-1-(8-(pyridin-3-yl)isochroman-1-yl)methanamine bis-hydrochloride]
minimal effective dose: > 30 mg/kg | AD: ADHD (probability that activity matches class): + (LOQ ≤ + <5%) | AG: analgesic (probability that activity matches class): + (LOQ ≤ + <5%) | AX: anxiolytic (probability that activity matches class): + (LOQ ≤ + <5%) | CE: cognitive enhancer (probability that activity matches class): + (LOQ ≤ + <5%) | DP: anti-depressant (probability that activity matches class): + (LOQ ≤ + <5%) | MS: mood stabilizer (probability that activity matches class): + (LOQ ≤ + <5%) | PS: anti-psychotic (probability that activity matches class): + (LOQ ≤ + <5%) | SD: sedative hypnotic (probability that activity matches class): + (LOQ ≤ + <5%) | UN: uncharacterized CNS activity (probability that activity matches class): + (LOQ ≤ + <5%)

CNC[C@H]1OCCc2cc(-c3cccnc3)ccc21 [Compound 6, (S)-N-methyl(6-(pyridin-3-yl)isochroman-1-yl)methanamine bis-hydrochloride]
minimal effective dose: 10 to 30 mg/kg | AD: ADHD (probability that activity matches class): + (LOQ ≤ + <5%) | AG: analgesic (probability that activity matches class): ++ (5% ≤ ++ <25%) | AX: anxiolytic (probability that activity matches class): ++ (5% ≤ ++ <25%) | CE: cognitive enhancer (probability that activity matches class): ++ (5% ≤ ++ <25%) | DP: anti-depressant (probability that activity matches class): +++ (25% ≤ +++ <50%) | MS: mood stabilizer (probability that activity matches class): + (LOQ ≤ + <5%) | PS: anti-psychotic (probability that activity matches class): ++ (5% ≤ ++ <25%) | SD: sedative hypnotic (probability that activity matches class): + (LOQ ≤ + <5%) | UN: uncharacterized CNS activity (probability that activity matches class): + (LOQ ≤ + <5%)
